Test system: FRT cells
Assay: Transepithelial conductance (Gt) in Air-Liquid Interface culture of transfected FRT cells
Type: cell-based, rat
Conditions: FRT cells transfected with 2099.1 or 1835.1; sequential Forskolin, VX770, Inh-172
Experimental: Further studies were conducted to assess the activity of hCFTR proteins expressed by selected mRNA constructs and whether these can properly open and close to allow proper ion transport. In these studies, an Air-Liquid Interface (ALI) cell culture model of FRT cells was used to transfect an unformulated subset of codon-optimized hCFTR mRNAs at different doses ranging from 0.5 μg-2 μg of mRNA (the 2 μg dose is not shown) into the FRT cells. ALI is a method of cell culture by which polarized cells are generated with their basal surfaces in contact with media, and the top of the cellular layer is exposed to the air. This model helps to mimic the cellular structure of in vivo airways. At 24 hours post-transfection, transepithelial conductance (Gt) of the cells over time was measured as an indicator of CFTR activity. Initially, Gt was measured with the transfected or control cells unperturbed. Then, a sequential process of CFTR activation (channel opening), enhancement (gating promotion) and closing of the CFTR channels was performed. The hCFTR constructs used in this study were 1835.1 (SEQ ID NO: 53), 2093.1 (SEQ ID NO: 66), 2095.1 (SEQ ID NO: 68), 2096.1 (SEQ ID NO: 69), and 2099.1 (SEQ ID NO: 72). In addition, controls were performed using a reference sequence of construct 764.1 (SEQ ID NO: 47) and untransfected cells. […]

SMILES | change in Gt on introduction of the agent
CC(C)(C)c1cc(C(C)(C)C)c(NC(=O)c2c[nH]c3ccccc3c2=O)cc1O [VX770, reference compound] | second increase in Gt
O=C(O)c1ccc(C=C2SC(=S)N(c3cccc(C(F)(F)F)c3)C2=O)cc1 [Inh-172, reference compound] | decline in Gt

Source: patent US20230159449A1, “LIPID FORMULATIONS CONTAINING NUCLEIC ACIDS AND METHODS OF TREATMENT FOR CYSTIC FIBROSIS” (Arcturus Therapeutics, Inc., priority 2021, published 2023)
